This is an account of results in paper PMC6356581, “Fragment-Based Structural Optimization of a Natural Product Itampolin A as a p38α Inhibitor for Lung Cancer” (Marine Drugs, 2019).

One experiment addresses MAPK14/p38α (Homo sapiens, UniProt Q16539). The experiment in a line: p38α MAP kinase activity based on the rate of phosphorylation of ATF-2 (TR-FRET). Format: biochemical. The conditions noted are these: 90 μM ATP, 0.4 μM GFP-ATF2 (19–96), 1 ng/mL MAPK14/p38α, 1 h RT; read-out: p38α MAP kinase inhibitory activity IC50. How it is done:
4.3. The p38α MAP Kinase Activity Based on the Rate of Phosphorylation of ATF-2
Kinase reaction buffer composition: 50 mM HEPES (pH 7.5), 10 mM MgCl2, 0.01% BRIJ-35 and 1 mM EGTA. Titration MAPK14/p38α at 90 μM ATP: Prepare MAPK14/p38α in kinase buffer at a concentration of 500 ng/mL. Perform two-fold serial dilution using kinase buffer from 500 ng/mL, 16 dose points. Add 5 μL of the serially diluted MAPK14/p38α into the 384-well plate in triplicate. Prepare 1 mL of 0.8 μM substrate GFP-ATF2 (19–96) and 180 μMATP in kinase reaction buffer. The reaction was carried out by adding 5 μL of the substrate GFP-ATF2 (19–96) and ATP solution into each well of the assay plate. Seal the assay plate and incubate for 1 h at room temperature (RT).
An amount of 4 μL MAPK14/p38α was added to each well of the 384-well assay plate. Incubate for 15 min at RT. Finally, 4 μL substrate GFP-ATF2 (19–96) and ATP in kinase reaction buffer were added to start the reaction. The final concentrations of MAPK14/p38α, Substrate, and ATP were 1 ng/mL, 0.4 μM, and 90 μM, respectively. Incubate for 1 h at RT. Add 10 μL/well of antibody solution. The final concentrations of EDTA and antibody were 10 mM and 2 nM respectively. Incubate for 30 min at RT.
(In TR-FRET formats the signal depends on donor and acceptor labels being close together.)

For another experiment, the system named is A549 cells. The experiment is described as follows: MTT cell proliferation inhibition assay. It counts as cell-based. The settings on record: Homo sapiens; A549, 48 h incubation. How it is done: 4.4. MTT Assay The A549 cell lines were cultured using DMEM and RPMI, respectively, in standard humidified incubation conditions at 37 °C in 5% CO2. Then, the cancer cells (1000/well) were placed on 96-well plates in triplicate. After 24 h incubation, cells were treated with a series of concentrations of the brominated tyrosine derivatives (1, 10, 20, 80 μmol/L). The positive control contained the same concentrations of BIRB-796, and the negative control received the same volume of DMSO. After 48h incubation, cells were stained with 5% MTT, and the optical density was recorded at an absorbance wavelength of 570 nm.

Experiment [1] has as its system non-small cell lung A549 cells. The arrangement: method as in doi:10.2174/1570179414666170215092631. The settings on record: previous study; cited from earlier work.
Experiment [2] relates to non-small cell lung cancer. The arrangement: method as in doi:10.2174/1570179414666170215092631. The conditions noted are these: previous study; cited from earlier work.

Sequence of MAPK14/p38α (Q16539 whole entry): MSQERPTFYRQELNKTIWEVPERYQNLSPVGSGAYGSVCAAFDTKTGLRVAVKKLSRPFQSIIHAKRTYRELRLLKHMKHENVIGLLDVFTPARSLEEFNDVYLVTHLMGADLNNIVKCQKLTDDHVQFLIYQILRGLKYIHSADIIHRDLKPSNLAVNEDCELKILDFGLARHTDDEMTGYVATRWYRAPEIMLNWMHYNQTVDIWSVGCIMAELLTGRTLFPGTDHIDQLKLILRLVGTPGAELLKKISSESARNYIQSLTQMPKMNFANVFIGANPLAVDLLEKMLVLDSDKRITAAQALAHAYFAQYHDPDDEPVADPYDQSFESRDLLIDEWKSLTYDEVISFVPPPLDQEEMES

With `COc1c(Br)cc(C[C@@H](NC(=O)Cc2ccc(OCCCN3CCOCC3)cc2)C(=O)NCCc2cc(Br)c(O)c(Br)c2)cc1Br` [Compound 4o], the IC50 (commonly the concentration that gives 50% inhibition) on MAPK14/p38α is 138 ± 13.6 nM.
Still for that read-out and setting: next, `COc1c(Br)cc(C[C@@H](NC(=O)Nc2ccc(Br)cc2)C(=O)NCCc2cc(Br)c(O)c(Br)c2)cc1Br` [Compound 5k]: 90.3 ± 2.7 nM; `CCCCOc1ccc(CC(=O)N[C@H](Cc2cc(Br)c(OC)c(Br)c2)C(=O)NCCc2cc(Br)c(O)c(Br)c2)cc1` [Compound 4d]: 806 ± 139 nM.
Regarding `COc1c(Br)cc(CCNC(=O)Nc2ccc(OC(C)C)cc2)cc1Br` [Compound 6h], on MAPK14/p38α, the IC50 amounted to 329 ± 44.2 nM.
Turning to `COc1c(Br)cc(C[C@@H](NC(=O)Nc2ccccc2Cl)C(=O)NCCc2cc(Br)c(O)c(Br)c2)cc1Br` [Compound 5j], the IC50 at MAPK14/p38α was found to be 448 ± 64.1 nM.
The same measure, in the same setting: next, `COc1ccc(NC(=O)N[C@H](Cc2cc(Br)c(OC)c(Br)c2)C(=O)NCCc2cc(Br)c(O)c(Br)c2)cc1` [Compound 5a]: 112 ± 12 nM; `COc1c(Br)cc(CCNC(=O)Nc2cccc(Cl)c2)cc1Br` [Compound 6i]: 17.5 ± 2.4 nM; `CCCCOc1ccc(NC(=O)N[C@H](Cc2cc(Br)c(OC)c(Br)c2)C(=O)NCCc2cc(Br)c(O)c(Br)c2)cc1` [Compound 5d]: 691 ± 38.4 nM.
The same measure, in the same setting: then `COc1c(Br)cc(CCNC(=O)Nc2ccccc2Cl)cc1Br` [Compound 6j], with 71.2 ± 4.5 nM.
Same read-out and setting: next, `CCCOc1ccc(NC(=O)NCCc2cc(Br)c(OC)c(Br)c2)cc1` [Compound 6c]: 701 ± 7.4 nM; `COc1c(Br)cc(CCNC(=O)Nc2ccc(F)cc2)cc1Br` [Compound 6l]: 21.5 ± 4.6 nM.
Consider `COc1c(Br)cc(C[C@@H](NC(=O)Nc2ccccc2F)C(=O)NCCc2cc(Br)c(O)c(Br)c2)cc1Br` [Compound 5m], for which the IC50 on MAPK14/p38α was found to be 71.4 ± 19.6 nM.
In the case of `COc1c(Br)cc(C[C@@H](NC(=O)Nc2ccc(C)cc2)C(=O)NCCc2cc(Br)c(O)c(Br)c2)cc1Br` [Compound 5n], on MAPK14/p38α, the IC50 worked out at 279 ± 28.9 nM.
Still for that read-out and setting: then `COc1c(Br)cc(CCNC(=O)Nc2ccccc2F)cc1Br` [Compound 6m], with 13.6 ± 3 nM.
With `CCOc1ccc(CC(=O)N[C@H](Cc2cc(Br)c(OC)c(Br)c2)C(=O)NCCc2cc(Br)c(O)c(Br)c2)cc1` [Compound 4b], at MAPK14/p38α, the IC50 was found to be 492 ± 46.2 nM.
Still for that read-out and setting: next, `COc1c(Br)cc(C[C@@H](NC(=O)Cc2ccccc2F)C(=O)NCCc2cc(Br)c(O)c(Br)c2)cc1Br` [Compound 4m]: 78.6 ± 59.2 nM; `COc1ccc(NC(=O)NCCc2cc(Br)c(OC)c(Br)c2)cc1` [Compound 6a]: 263 ± 3.3 nM.
The same measure, in the same setting: next, `COc1c(Br)cc(CCNC(=O)Nc2ccc(Br)cc2)cc1Br` [Compound 6k]: 169 ± 2.6 nM.
Consider `COc1c(Br)cc(CCNC(=O)Nc2ccc(OCCCN3CCOCC3)cc2)cc1Br` [Compound 6o], for which the IC50 on MAPK14/p38α came out at 7.9 ± 1.7 nM; in the experiment on A549 cells, 660 nM.
Turning to `COc1c(Br)cc(CC(NC(=O)Nc2ccc(OCCCN3CCOCC3)cc2)C(=O)NCCc2cc(Br)c(O)c(Br)c2)cc1Br` (stereo not shown) [Compound 5o], the 50% inhibitory concentration (IC50) at MAPK14/p38α came to 134 ± 26.3 nM.
Same read-out and setting: then `CCOc1ccc(NC(=O)N[C@H](Cc2cc(Br)c(OC)c(Br)c2)C(=O)NCCc2cc(Br)c(O)c(Br)c2)cc1` [Compound 5b], with 346 ± 18.4 nM.
On to `COc1c(Br)cc(C[C@@H](NC(=O)Cc2ccc(OCCCNC(C)=O)cc2)C(=O)NCCc2cc(Br)c(O)c(Br)c2)cc1Br` [(−)-itampolin A], for which the “inhibitory activity against non-small cell lung A549 cells” value in experiment [1] was “significant inhibitory activity”.
Turning to `COc1c(Br)cc(C[C@@H](NC(=O)Cc2ccc(Br)cc2)C(=O)NCCc2cc(Br)c(O)c(Br)c2)cc1Br` [Compound 4k], the IC50 at MAPK14/p38α amounted to 832 ± 12.1 nM.
Still for that read-out and setting: then `COc1c(Br)cc(C[C@@H](NC(=O)Cc2cccc(Cl)c2)C(=O)NCCc2cc(Br)c(O)c(Br)c2)cc1Br` [Compound 4i], with 91 ± 11.1 nM; and `CCCOc1ccc(NC(=O)N[C@H](Cc2cc(Br)c(OC)c(Br)c2)C(=O)NCCc2cc(Br)c(O)c(Br)c2)cc1` [Compound 5c], with 167 ± 23.9 nM.
The same measure, in the same setting: then `CCOc1ccc(NC(=O)NCCc2cc(Br)c(OC)c(Br)c2)cc1` [Compound 6b], with 221 ± 4.2 nM.
On the same count and under the same terms, next, `COc1c(Br)cc(CCNC(=O)Nc2ccc(C)cc2)cc1Br` [Compound 6n]: 300 ± 11.7 nM; `COc1c(Br)cc(C[C@@H](NC(=O)Nc2cccc(Cl)c2)C(=O)NCCc2cc(Br)c(O)c(Br)c2)cc1Br` [Compound 5i]: 51.3 ± 4.5 nM.
As to `COc1c(Br)cc(C[C@@H](NC(=O)Cc2ccc(OCCCNC(C)=O)cc2)C(=O)NCCc2cc(Br)c(O)c(Br)c2)cc1Br` [Itampolin A], the “antitumor activity against non-small cell lung cancer” value in experiment [2] is listed as “potent concentration-dependent antitumor activity”.
Turning to `COc1c(Br)cc(C[C@@H](NC(=O)Cc2ccc(F)cc2)C(=O)NCCc2cc(Br)c(O)c(Br)c2)cc1Br` [Compound 4l], the IC50 at MAPK14/p38α turned out to be 618 ± 87.7 nM.
As to `COCCOc1ccc(NC(=O)NCCc2cc(Br)c(OC)c(Br)c2)cc1` [Compound 6g], the IC50 on MAPK14/p38α worked out at 11.7 ± 3 nM.
In the case of `CCC(C)Oc1ccc(NC(=O)NCCc2cc(Br)c(OC)c(Br)c2)cc1` (stereo not shown) [Compound 6e], at MAPK14/p38α, the IC50 turned out to be 920.3 ± 6.1 nM.
Regarding `COc1c(Br)cc(C[C@@H](NC(=O)Nc2ccc(F)cc2)C(=O)NCCc2cc(Br)c(O)c(Br)c2)cc1Br` [Compound 5l], the IC50 at MAPK14/p38α was determined as 110 ± 18.8 nM.
